Reference: patent publication US4863741A, “Tablet composition for drug combinations” (Abbott Laboratories, priority 1989, dated 1989)
Like-named read-outs stand apart in the source and are kept apart here.

Type: physicochemical
Details: for t90 (time required for 10% destruction of erythromycin activity): 25° C.; for t50 (time required for 50% destruction of erythromycin activity): water
Procedure: To evaluate the feasibility of a single, non-enteric coated preparation containing erythromycin, the times required for 50% destruction of erythromycin activity t50) and 10% destruction of erythromycin activity t90) in aqueous solution at 25° C. were calculated as a function of pH from data reported in the literature.

CC[C@H]1OC(=O)[C@H](C)[C@@H](O[C@H]2C[C@@](C)(OC)[C@@H](O)[C@H](C)O2)[C@H](C)[C@@H](O[C@@H]2O[C@H](C)C[C@H](N(C)C)[C@H]2O)[C@](C)(O)C[C@@H](C)C(=O)[C@H](C)[C@@H](O)[C@]1(C)O [erythromycin]
t90 (time required for 10% destruction of erythromycin activity) (pH 3.0, aqueous solution): 1.52 min
t90 (time required for 10% destruction of erythromycin activity) (pH 3.5, aqueous solution): 528 min
t90 (time required for 10% destruction of erythromycin activity) (pH 4.0, aqueous solution): 15.2 min
t90 (time required for 10% destruction of erythromycin activity) (pH 4.5, aqueous solution): 52.8 min
t90 (time required for 10% destruction of erythromycin activity) (pH 5.0, aqueous solution): 152 min
t90 (time required for 10% destruction of erythromycin activity) (pH 5.5, aqueous solution): 528 min
t90 (time required for 10% destruction of erythromycin activity) (pH 6.0, aqueous solution): 1530 min
t50 (time required for 50% destruction of erythromycin activity) (pH 3): 0.167 h
t50 (time required for 50% destruction of erythromycin activity) (pH 3.5): 0.578 h
t50 (time required for 50% destruction of erythromycin activity) (pH 4): 1.67 h
t50 (time required for 50% destruction of erythromycin activity) (pH 4.5): 5.79 h
t50 (time required for 50% destruction of erythromycin activity) (pH 5): 16.7 h
t50 (time required for 50% destruction of erythromycin activity) (pH 5.5): 57.8 h
t50 (time required for 50% destruction of erythromycin activity) (pH 6): 167 h
